Patent US8377935B2, “Substituted aminopropenyl piperidine or morpholine derivatives as novel inhibitors of histone deacetylase” (Janssen Pharmaceutica N.V., priority 2005, dated 2013)

Target: histone deacetylase (HeLa nuclear extracts)
Assay: In vitro assay for inhibition of histone deacetylase (HDAC Fluorescent Activity Assay, Fluor de Lys)
Type: biochemical
Conditions: HeLa nuclear extracts 60 μg/ml, 75 μM Fluor de Lys substrate
From the text: The in vitro assay for inhibition of histone deacetylase (see example C.1) measures the inhibition of HDAC enzymatic activity obtained with the compounds of formula (I).
The HDAC Fluorescent Activity Assay/Drug Discovery Kit of Biomol (cat.No: AK-500-0001) was used. The HDAC Fluorescent Activity Assay is based on the Fluor de Lys (Fluorogenic Histone deAcetylase Lysyl) substrate and developer combination. The Fluor de Lys substrate, comprises an acetylated lysine side chain. Deacetylation of the substrate sensitizes the substrate so that, in the second step, treatment with the Fluor de Lys developer produces a fluorophore.
HeLa nuclear extracts (supplier: Biomol) were incubated at 60 μg/ml with 75 μM of substrate. The Fluor de Lys substrate was added in a buffer containing 25 mM Tris, 137 mM. NaCl, 2.7 mM KCl and 1 mM MgCl2.6H2O at pH 7.4. After 30 min, 1 volume of the developer was added. The fluorophore was excited with 355 nm light and the emitted light (450 nm) was be detected on a fluorometric plate reader.
For each experiment, controls (containing HeLa nuclear extract and buffer), a blank incubation (containing buffer but no HeLa nuclear extract) and samples (containing compound dissolved in DMSO and further diluted in buffer and HeLa nuclear extract) were run in parallel. In first instance, compounds were tested at a concentration of 10^−5M. […] All sample were tested 4 times. In each test the blank value was substracted from both the control and the sample values. The control sample represented 100% of substrate deactylation. For each sample the fluorescence was expressed as a percentage of the mean value of the controls. […] Herein the effects of test compounds are expressed as pIC50 (the negative log value of the IC50-value) (see Table F-3).

- Enzyme activity pIC50: 9.0
Compound: O=C(NO)c1cnc(N2CCC(CNC(/C=C/c3ccccc3)CO)CC2)nc1 (stereo not shown) [Compound 1]
